In patent US20230220021A1, “CYCLIC PEPTIDE INHIBITORS OF PSD-95 AND USES THEREOF” (University of Copenhagen, priority 2020, published 2023):
Where a SMILES comes first, the peptide text is derived from it. [ ]: non-standard residue; d: D form.

Key:
Format in all cases: binding
PSD-95-PDZ2 [1] = molecular target: T1, PSD-95-PDZ2 (Homo sapiens, UniProt P78352); assay: Isothermal titration calorimetry (ITC)
T1 construct: 7xHis (N); made in house; host or cells: Escherichia coli B21 pLys (for the mutants, 'as previously described')
Experimental: Isothermal titration calorimetry (ITC). The ITC assays were performed in NaPi 50 nM, 50 nM NaCl, pH 7.2 buffer filtered with a Corning® bottle-top vacuum filter system of a pore size of 0.22 μM, that was used to dissolve the peptides. Proteins were dialyzed against this buffer using Amicon® Ultra-15 centrifugal filter units, with a MWCO 3000 Da.
This assay was performed on an ITC200. The instrument differential power (DP) was set to 10 and the syringe rotating speed to 600 RPM. The assay setup consisted of introducing the protein inside the cell and the peptide (titrant) on the syringe. Calorimetry was performed at 25° C. Each analysis was performed in triplicates. Furthermore, several runs of peptide into buffer were performed in order to remove injection residual heat. Runs were analyzed with Origin 7.0 software (OriginLab).

PSD-95-PDZ2 [2] = molecular target: T1, PSD-95-PDZ2; assay: Fluorescence polarization (FP) competition assay against cyclic nNOS TAMRA probe; settings: for Ki: FP competition, cyclic nNOS TAMRA probe, mean of triplicates, N.B. = not binding, read-out: Ki; for Relative Ki (Ki mut/Ki WT): FP inhibition constant normalized to WT value
PSD-95-PDZ2 [3] = molecular target: T2, PSD-95-PDZ2 (Homo sapiens, UniProt P78352, V178C); assay: SPOT peptide array screening with TAMRA labelled PSD-95-PDZ2; settings: SPOT array, TAMRA labelled PSD-95-PDZ2-V178C, normalized to WT
T2 construct: screened with the TAMRA labelled PSD-95-PDZ2-V178C domain; 7xHis (N); made in house
How it was run: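 First, arrays were blocked 1 h and scanned to record background. Next, 50 nM labelled PDZ2-V178C in PBS pH 7.2 with 0.5% BSA bound for 1 h protected from light. Finally, after washes, 532 nm fluorescence was measured and background-corrected.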

| Kd (PSD-95-PDZ2 [1]; 25° C., tested up to 100 μM, read-out: affinity (Kd) by ITC) [nM] | fold improved binding affinity compared to the wild-type peptide (PSD-95-PDZ2 [1]; ITC Kd) [fold] | Ki (PSD-95-PDZ2 [2]) [nM] | Relative Ki (Ki mut/Ki WT) (PSD-95-PDZ2 [2]) | Normalized SPOT fluorescence (Mut/WT) (PSD-95-PDZ2 [3]) | SMILES |
| --- | --- | --- | --- | --- | --- |
|  |  |  | 0.83 | 1.30 | CC[C@H](C)[C@@H]1NC(=O)[C@H]([C@@H](C)O)NC(=O)[C@H](CCCCN)NC(=O)[C@@H]2CCCN2C(=O)[C@H](C)NC(=O)CNC(=O)[C@H](CC(=O)O)NC(=O)CNC(=O)[C@H]([C@@H](C)O)NC(=O)[C@H](Cc2ccccc2)NC(=O)[C@H]([C@@H](C)O)NC(=O)[C@H]([C@@H](C)O)NC(=O)[C@H](CCC(=O)O)NC(=O)[C@H](CC(C)C)NC(=O)[C@H](Cc2c[nH]cn2)NC(=O)[C@H]([C@@H](C)O)NC(=O)[C@H](CCC(N)=O)NC(=O)CNC(=O)[C@H]2CCCN2C(=O)[C@H](CCC(N)=O)NC(=O)[C@H]([C@@H](C)O)NC(=O)[C@H](C(C)C)NC(=O)[C@H](CCCNC(=N)N)NC1=O [compound 66] (cyclo(THLETTFTGDGAPKTIRVTQ[dP]GQ)) |
|  |  | 17000 | 11.33 | 0.09 | CC[C@H](C)[C@@H]1NC(=O)[C@H](C)NC(=O)[C@H](CCCCN)NC(=O)[C@@H]2CCCN2C(=O)[C@H]([C@@H](C)O)NC(=O)CNC(=O)[C@H](CC(=O)O)NC(=O)CNC(=O)[C@H]([C@@H](C)O)NC(=O)[C@H](Cc2ccccc2)NC(=O)[C@H]([C@@H](C)O)NC(=O)[C@H]([C@@H](C)O)NC(=O)[C@H](CCC(=O)O)NC(=O)[C@H](CC(C)C)NC(=O)[C@H](Cc2c[nH]cn2)NC(=O)[C@H]([C@@H](C)O)NC(=O)[C@H](CCC(N)=O)NC(=O)CNC(=O)[C@H]2CCCN2C(=O)[C@H](CCC(N)=O)NC(=O)[C@H]([C@@H](C)O)NC(=O)[C@H](C(C)C)NC(=O)[C@H](CCCNC(=N)N)NC1=O [compound 69] (cyclo(THLETTFTGDGTPKAIRVTQ[dP]GQ)) |
|  |  |  | 1.49 | 0.09 | CC[C@H](C)[C@@H]1NC(=O)[C@H]([C@@H](C)O)NC(=O)[C@H](CCCCN)NC(=O)[C@@H]2CCCN2C(=O)[C@H]([C@@H](C)O)NC(=O)CNC(=O)[C@H](CC(=O)O)NC(=O)CNC(=O)[C@H]([C@@H](C)O)NC(=O)[C@H](Cc2ccccc2)NC(=O)[C@H]([C@@H](C)O)NC(=O)[C@H]([C@@H](C)O)NC(=O)[C@H](CCC(=O)O)NC(=O)[C@H](CC(C)C)NC(=O)[C@H](Cc2c[nH]cn2)NC(=O)[C@H]([C@@H](C)O)NC(=O)[C@H](CCC(N)=O)NC(=O)CNC(=O)[C@H]2CCCN2C(=O)[C@H](CCC(N)=O)NC(=O)[C@H]([C@@H](C)O)NC(=O)[C@H](C)NC(=O)[C@H](CCCNC(=N)N)NC1=O [compound 72] (cyclo(THLETTFTGDGTPKTIRATQ[dP]GQ)) |
|  |  |  | 1.03 | 0.61 | CC[C@H](C)[C@@H]1NC(=O)[C@H]([C@@H](C)O)NC(=O)[C@H](CCCCN)NC(=O)[C@@H]2CCCN2C(=O)[C@H]([C@@H](C)O)NC(=O)CNC(=O)[C@H](CC(=O)O)NC(=O)CNC(=O)[C@H]([C@@H](C)O)NC(=O)[C@H](Cc2ccccc2)NC(=O)[C@H]([C@@H](C)O)NC(=O)[C@H]([C@@H](C)O)NC(=O)[C@H](CCC(=O)O)NC(=O)[C@H](CC(C)C)NC(=O)[C@H](Cc2c[nH]cn2)NC(=O)[C@H]([C@@H](C)O)NC(=O)[C@H](CCC(N)=O)NC(=O)CNC(=O)[C@H]2CCCN2C(=O)[C@H](CCC(N)=O)NC(=O)[C@H](C)NC(=O)[C@H](C(C)C)NC(=O)[C@H](CCCNC(=N)N)NC1=O [compound 73] (cyclo(THLETTFTGDGTPKTIRVAQ[dP]GQ)) |

Continued, compound first:

| SMILES | Kd (PSD-95-PDZ2 [1]; 25° C., tested up to 100 μM, read-out: affinity (Kd) by ITC) [nM] | fold improved binding affinity compared to the wild-type peptide (PSD-95-PDZ2 [1]; ITC Kd) [fold] | Ki (PSD-95-PDZ2 [2]) [nM] | Relative Ki (Ki mut/Ki WT) (PSD-95-PDZ2 [2]) | Normalized SPOT fluorescence (Mut/WT) (PSD-95-PDZ2 [3]) |
| --- | --- | --- | --- | --- | --- |
| CC[C@H](C)[C@@H]1NC(=O)[C@H]([C@@H](C)O)NC(=O)[C@H](CCCCN)NC(=O)[C@@H]2CCCN2C(=O)[C@H]([C@@H](C)O)NC(=O)CNC(=O)[C@H](CC(=O)O)NC(=O)CNC(=O)[C@H]([C@@H](C)O)NC(=O)[C@H](Cc2ccccc2)NC(=O)[C@H]([C@@H](C)O)NC(=O)[C@H]([C@@H](C)O)NC(=O)[C@H](CCC(=O)O)NC(=O)[C@H](CC(C)C)NC(=O)[C@H](Cc2c[nH]cn2)NC(=O)[C@H]([C@@H](C)O)NC(=O)[C@H](CCC(N)=O)NC(=O)CNC(=O)[C@H]2CCCN2C(=O)[C@H](CCC(N)=O)NC(=O)[C@H]([C@@H](C)O)NC(=O)[C@H](C(C)C)NC(=O)[C@H](CCCNC(=N)N)NC1=O [SEQ ID NO: 12] | 2200 ± 300 |  |  |  |  |
| CC[C@H](C)[C@@H]1NC(=O)[C@H]([C@@H](C)O)NC(=O)[C@H](CCCCN)NC(=O)[C@@H]2CCCN2C(=O)[C@H](CCC(=O)O)NC(=O)CNC(=O)[C@H](CC(=O)O)NC(=O)CNC(=O)[C@H](Cc2c[nH]c3ccccc23)NC(=O)[C@H](Cc2ccccc2)NC(=O)[C@H]([C@@H](C)O)NC(=O)[C@H]([C@@H](C)O)NC(=O)[C@H](CCC(=O)O)NC(=O)[C@H](CC(C)C)NC(=O)[C@H](Cc2c[nH]cn2)NC(=O)[C@H]([C@@H](C)O)NC(=O)[C@H](CCC(N)=O)NC(=O)CNC(=O)[C@H]2CCCN2C(=O)[C@H](CCC(N)=O)NC(=O)[C@H]([C@@H](C)O)NC(=O)[C@H](C(C)C)NC(=O)[C@H](CCCNC(=N)N)NC1=O [SEQ ID NO: 14] (cyclo(THLETTFWGDGEPKTIRVTQ[dP]GQ)) |  | 16 |  |  |  |
| CC[C@H](C)[C@@H]1NC(=O)[C@H]([C@@H](C)O)NC(=O)[C@H](CCCCN)NC(=O)[C@@H]2CCCN2C(=O)[C@H]([C@@H](C)O)NC(=O)[C@H](C)NC(=O)[C@H](CC(=O)O)NC(=O)CNC(=O)[C@H]([C@@H](C)O)NC(=O)[C@H](Cc2ccccc2)NC(=O)[C@H]([C@@H](C)O)NC(=O)[C@H]([C@@H](C)O)NC(=O)[C@H](CCC(=O)O)NC(=O)[C@H](CC(C)C)NC(=O)[C@H](Cc2c[nH]cn2)NC(=O)[C@H]([C@@H](C)O)NC(=O)[C@H](CCC(N)=O)NC(=O)CNC(=O)[C@H]2CCCN2C(=O)[C@H](CCC(N)=O)NC(=O)[C@H]([C@@H](C)O)NC(=O)[C@H](C(C)C)NC(=O)[C@H](CCCNC(=N)N)NC1=O [compound 65] (cyclo(THLETTFTGDATPKTIRVTQ[dP]GQ)) |  |  | 410 | 0.27 | 1.34 |
| CC[C@H](C)[C@@H]1NC(=O)[C@H]([C@@H](C)O)NC(=O)[C@H](CCCCN)NC(=O)[C@H](C)NC(=O)[C@H]([C@@H](C)O)NC(=O)CNC(=O)[C@H](CC(=O)O)NC(=O)CNC(=O)[C@H]([C@@H](C)O)NC(=O)[C@H](Cc2ccccc2)NC(=O)[C@H]([C@@H](C)O)NC(=O)[C@H]([C@@H](C)O)NC(=O)[C@H](CCC(=O)O)NC(=O)[C@H](CC(C)C)NC(=O)[C@H](Cc2c[nH]cn2)NC(=O)[C@H]([C@@H](C)O)NC(=O)[C@H](CCC(N)=O)NC(=O)CNC(=O)[C@H]2CCCN2C(=O)[C@H](CCC(N)=O)NC(=O)[C@H]([C@@H](C)O)NC(=O)[C@H](C(C)C)NC(=O)[C@H](CCCNC(=N)N)NC1=O [compound 67] (cyclo(THLETTFTGDGTAKTIRVTQ[dP]GQ)) |  |  |  | 1.07 | 0.93 |
| CC(C)C[C@@H]1NC(=O)[C@H](Cc2c[nH]cn2)NC(=O)[C@H]([C@@H](C)O)NC(=O)[C@H](CCC(N)=O)NC(=O)CNC(=O)[C@H]2CCCN2C(=O)[C@H](CCC(N)=O)NC(=O)[C@H]([C@@H](C)O)NC(=O)[C@H](C(C)C)NC(=O)[C@H](CCCNC(=N)N)NC(=O)[C@H](C)NC(=O)[C@H]([C@@H](C)O)NC(=O)[C@H](CCCCN)NC(=O)[C@@H]2CCCN2C(=O)[C@H]([C@@H](C)O)NC(=O)CNC(=O)[C@H](CC(=O)O)NC(=O)CNC(=O)[C@H]([C@@H](C)O)NC(=O)[C@H](Cc2ccccc2)NC(=O)[C@H]([C@@H](C)O)NC(=O)[C@H]([C@@H](C)O)NC(=O)[C@H](CCC(=O)O)NC1=O [compound 70] (cyclo(THLETTFTGDGTPKTARVTQ[dP]GQ)) |  |  | 1760 | 1.17 | 0.06 |
| CC[C@H](C)[C@@H]1NC(=O)[C@H]([C@@H](C)O)NC(=O)[C@H](CCCCN)NC(=O)[C@@H]2CCCN2C(=O)[C@H]([C@@H](C)O)NC(=O)CNC(=O)[C@H](CC(=O)O)NC(=O)CNC(=O)[C@H]([C@@H](C)O)NC(=O)[C@H](Cc2ccccc2)NC(=O)[C@H]([C@@H](C)O)NC(=O)[C@H]([C@@H](C)O)NC(=O)[C@H](CCC(=O)O)NC(=O)[C@H](CC(C)C)NC(=O)[C@H](Cc2c[nH]cn2)NC(=O)[C@H]([C@@H](C)O)NC(=O)[C@H](CCC(N)=O)NC(=O)CNC(=O)[C@H]2CCCN2C(=O)[C@H](CCC(N)=O)NC(=O)[C@H]([C@@H](C)O)NC(=O)[C@H](C(C)C)NC(=O)[C@H](C)NC1=O [compound 71] (cyclo(THLETTFTGDGTPKTIAVTQ[dP]GQ)) |  |  |  | 1.65 | 0.15 |
| CC[C@H](C)[C@@H]1NC(=O)[C@H]([C@@H](C)O)NC(=O)[C@H](CCCCN)NC(=O)[C@@H]2CCCN2C(=O)[C@H]([C@@H](C)O)NC(=O)CNC(=O)[C@H](CC(=O)O)NC(=O)CNC(=O)[C@H]([C@@H](C)O)NC(=O)[C@H](Cc2ccccc2)NC(=O)[C@H]([C@@H](C)O)NC(=O)[C@H]([C@@H](C)O)NC(=O)[C@H](CCC(=O)O)NC(=O)[C@H](CC(C)C)NC(=O)[C@H](Cc2c[nH]cn2)NC(=O)[C@H]([C@@H](C)O)NC(=O)[C@H](CCC(N)=O)NC(=O)CNC(=O)[C@H]2CCCN2C(=O)[C@H](C)NC(=O)[C@H]([C@@H](C)O)NC(=O)[C@H](C(C)C)NC(=O)[C@H](CCCNC(=N)N)NC1=O [compound 74] (cyclo(THLETTFTGDGTPKTIRVTA[dP]GQ)) |  |  |  | 1.01 | 0.42 |
